Measured values: patent publication US6656497B2, “Liposomal vector for active-principle” (Lipogel, priority 1997, dated 2003)

Experiments:
[1] = Passage of orally administered free calcitonin across the intestinal barrier; assay type: in vivo; settings: 330 IU administered orally
Method: It is explained by the fact that during a massive administration of peptide such as calcitonin, a small percentage crosses the intestinal barrier (1%) without being denatured. In this case, 330 IU were administered, which corresponds to a lymphatic passage of 3.3 IU (passage from the intestinal lumen into the plasma, via the lymphatic canal pathway). However, the IV-route effect of calcitonin starts at 0.9 IU. It is thus normal to observe this effect of free calcitonin. The hypocalcaemia observed after oral administration of calcitonin decreases over time to return to the normal level after 90 min.

[2] = massive oral administration of peptide; cited from earlier work

lymphatic passage (intestinal lumen into plasma via lymphatic canal pathway) [1]: 3.3 IU
Compound: CC(C)C[C@H](NC(=O)[C@H](CCCCN)NC(=O)CNC(=O)[C@H](CC(C)C)NC(=O)[C@@H](NC(=O)[C@@H]1CSSC[C@H](N)C(=O)N[C@@H](CO)C(=O)N[C@@H](CC(N)=O)C(=O)N[C@@H](CC(C)C)C(=O)N[C@@H](CO)C(=O)N[C@@H]([C@@H](C)O)C(=O)N1)C(C)C)C(=O)N[C@@H](CO)C(=O)N[C@@H](CCC(N)=O)C(=O)N[C@@H](CCC(=O)O)C(=O)N[C@@H](CC(C)C)C(=O)N[C@@H](Cc1c[nH]cn1)C(=O)N[C@@H](CCCCN)C(=O)N[C@@H](CC(C)C)C(=O)N[C@@H](CCC(N)=O)C(=O)N[C@H](C(=O)N[C@@H](Cc1ccc(O)cc1)C(=O)N1CCC[C@H]1C(=O)N[C@@H](CCCNC(=N)N)C(=O)N[C@H](C(=O)N[C@@H](CC(N)=O)C(=O)N[C@H](C(=O)NCC(=O)N[C@@H](CO)C(=O)NCC(=O)N[C@H](C(=O)N1CCC[C@H]1C(N)=O)[C@@H](C)O)[C@@H](C)O)[C@@H](C)O)[C@@H](C)O [free calcitonin, salmon calcitonin]
percentage crossing the intestinal barrier without being denatured [2]: 1%
